Experimental data: patent US20170121344A1 (Siga Technologies, Inc., priority 2009, published 2017)
Where a name gives a salt, the structure may show the parent alone. Read-outs that look alike come from different tables or passages of the source.

Tested on: Dengue-2 (Strain New Guinea C)
Experiment: Viral yield assay against Dengue-2 in Vero cells
Format: cell-based, Dengue virus
Conditions: Dengue virus
In short: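 Vero cells were infected with dengue-2 at MOI 0.1, treated with compound (DMSO control), and kept at 37° C. They were harvested 48 hours post infection and yield was titered on Vero cells. EC50 came from the yield curve, and the other serotypes were run in a similar way.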

[1] = DENV2, viral yield assay, Vero cells, MOI 0.1, 48 hours post infection, read-out: Activity (EC50 in μM) DENV-2
[2] = Vero cells, MOI 0.1, harvested 48 hours post infection, read-out: Activity (EC50 class) against Dengue-2 Virus in Vero cells
[3] = Vero, 48 h, read-out: Activity (EC50 class) against Dengue-2 Virus in Vero cells

SMILES	EC50 [1] [µM]	EC50 [2] [µM]	also measured
Nc1c(C(=O)Nc2ccccc2Br)sc2ncccc12 [Compound 422, 3-amino-N-(2-bromophenyl)thieno[2,3-b] pyridine-2-carboxamide]	< 5	–	–
Cc1ccc(NC(=O)c2sc3nc(C)cc(C(F)(F)F)c3c2N)cc1 [Compound 165, 3-Amino-6-methyl-4-trifluoromethyl-thieno[2,3-b]pyridine-2-carboxylic acid p-tolylamide]	–	> 25	–
CN1CCc2nc3sc(C(=O)NCCc4c[nH]c5ccccc45)c(N)c3cc2C1 [Compound 32, 3-Amino-6-methyl-5,6,7,8-tetrahydro-thieno[2,3-b][1,6]naphthyridine-2-carboxylic acid [2-(1H-indol-3-yl)-ethyl]-amide]	–	< 5	–
COc1ccc(NC(=O)c2sc3nc(-c4ccc(OC)c(OC)c4)ccc3c2N)c(OC)c1 [Compound 536, 3-amino-N-(2,4-dimethoxyphenyl)-6-(3,4-dimethoxyphenyl)thieno[2,3-b]pyridine-2-carboxamide]	< 5	–	–
CCc1nnc(NC(=O)c2sc3nc(-c4cccs4)cc(C(F)(F)F)c3c2N)s1 [Compound 90, 3-Amino-6-thiophen-2-yl-4-trifluoromethyl-thieno[2,3-b]pyridine-2-carboxylic acid (5-ethyl-[1,3,4]thiadiazol-2-yl)-amide]	–	–	EC50 [3]: 5 to 25 µM
CCCCN(CCCC)C(=O)c1sc2nc(N3CCOCC3)c3c(c2c1N)CC(C)(C)OC3 [Compound 246, 1-Amino-8,8-dimethyl-5-morpholin-4-yl-8,9-dihydro-6H-7-oxa-3-thia-4-aza-cyclopenta[a]naphthalene-2-carboxylic acid dibutylamide]	–	> 25	–
Nc1c(C(=O)Nc2nnc(-c3ccccc3)s2)sc2ncc(C(=O)O)cc12 [Compound 291, 3-amino-2-[(5-phenyl-1,3,4-thiadiazol-2-yl)carbamoyl]thieno[2,3-b]pyridine-5-carboxylic acid]	5 to 25	–	–
N#Cc1c(N)nc2sc(C(=O)Nc3ccccc3)c(N)c2c1-c1ccco1 [Compound 375, 3,6-diamino-5-cyano-4-(2-furyl)-N-phenyl-thieno[2,3-b]pyridine-2-carboxamide]	5 to 25	–	–
Nc1c(C(=O)Nc2ccccc2F)sc2nc3c(cc12)CCCC3 [Compound 78, 3-Amino-5,6,7,8-tetrahydro-thieno[2,3-b]quinoline-2-carboxylic acid (2-fluoro-phenyl)-amide]	–	–	EC50 [3]: 5 to 25 µM
CC1(C)Cc2c(c(N3CCOCC3)nc3sc(C(=O)N4CCOCC4)c(N)c23)CO1 [Compound 234, (1-Amino-8,8-dimethyl-5-morpholin-4-yl-8,9-dihydro-6H-7-oxa-3-thia-4-aza-cyclopenta[a]naphthalen-2-yl)-morpholin-4-yl-methanone]	–	> 25	–
COCc1cc(C)nc2sc(C(=O)Nc3ccc4c(c3)OCO4)c(N)c12 [Compound 250, 3-Amino-4-methoxymethyl-6-methyl-thieno[2,3-b]pyridine-2-carboxylic acid benzo[1,3]dioxol-5-ylamide]	–	> 25	–
Cc1cccc(NC(=O)c2sc3nc(-c4cccs4)ccc3c2N)c1 [Compound 419, 3-amino-N-(m-tolyl)-6-(2-thienyl) thieno[2,3-b]pyridine-2-carboxamide]	–	–	EC50 (DENV2, Vero, 48 h, read-out: Activity (EC50 in μM) DENV-2): < 5 µM
CN1CCc2nc3sc(C(=O)Nc4ccccc4F)c(N)c3cc2C1 [Compound 38, 3-Amino-6-methyl-5,6,7,8-tetrahydro-thieno[2,3-b][1,6]naphthyridine-2-carboxylic acid (2-fluoro-phenyl)-amide]	–	< 5	–
CCOC(=O)c1c(NC(=O)c2sc3nc(N)c(C#N)cc3c2N)sc2c1CCCC2 [Compound 148, 2-[(3,6-Diamino-5-cyano-thieno[2,3-b]pyridine-2-carbonyl)-amino]-4,5,6,7-tetrahydro-benzo[b]thiophene-3-carboxylic acid ethyl ester]	–	> 25	–
Cc1cccc(NC(=O)c2sc3nc4c(cc3c2N)CCC4)c1C [Compound 179, 3-Amino-6,7-dihydro-5H-cyclopenta[b]thieno[3,2-e]pyridine-2-carboxylic acid (2,3-dimethyl-phenyl)-amide]	–	–	EC50 [3]: > 25 µM
Nc1c(C(=O)Nc2ccccc2C(F)(F)F)sc2nc3c(cc12)CCCCC3 [Compound 372, 3-amino-N-(2-(trifluoromethyl)phenyl)-6,7,8,9-tetrahydro-5H-cyclohepta[b]thieno [3,2-e]pyridine-2-carboxamide]	< 5	–	–
COc1ccc(C(F)(F)F)cc1NC(=O)c1sc2nc(-c3cccs3)ccc2c1N [Compound 442, 3-amino-N-[2-methoxy-5-(trifluoromethyl)phenyl]-6-(2-thienyl) thieno[2,3-b]pyridine-2-carboxamide]	< 5	–	–
Cc1nc(C)c(-c2ccc3c(N)c(C(=O)Nc4cccc(C(F)(F)F)c4)sc3n2)s1 [Compound 318, 3-amino-6-(2,4-dimethylthiazol-5-yl)-N-[3-(trifluoromethyl)phenyl]thieno[2,3-b]pyridine-2-carboxamide]	< 5	–	–

SMILES	EC50 [1] [µM]	EC50 [2] [µM]	also measured
N#Cc1cc2c(N)c(C(=O)Nc3ccccc3C(F)(F)F)sc2nc1N [Compound 130, 3,6-Diamino-5-cyano-thieno[2,3-b]pyridine-2-carboxylic acid (2-trifluoromethyl-phenyl)-amide]	–	> 25	–
Nc1c(C(=O)Nc2nnc(-c3ccccc3)s2)sc2nc3c(cc12)CCNCC3 [Compound 115, 3-Amino-6,7,8,9-tetrahydro-5H-1-thia-7,10-diaza-cyclohepta[f]indene-2-carboxylic acid (5-phenyl-[1,3,4]thiadiazol-2-yl)-amide hydrochloride]	–	5 to 25	–
Nc1c(C(=O)Nc2ccc(O)cc2)sc2nc(-c3ccc(Cl)cc3)ccc12 [Compound 356, 3-amino-6-(4-chlorophenyl)-N-(4-hydroxy-phenyl) thieno [2,3-b]pyridine-2-carboxamide]	5 to 25	–	–
COc1cccc(-c2ccc3c(N)c(C(=O)Nc4ccc(Cl)cc4F)sc3n2)c1 [Compound 519, 3-amino-N-(4-chloro-2-fluoro-phenyl)-6-(3-methoxyphenyl)thieno[2,3-b]pyridine-2-carboxamide]	< 5	–	–
NC(=O)c1sc2nc(-c3cccs3)cc(-c3ccc(F)cc3)c2c1N [Compound 2, 3-Amino-4-(4-fluoro-phenyl)-6-thiophen-2-yl-thieno[2,3-b]pyridine-2-carboxylic acid amide]	–	< 5	–
O=C(Nc1cccc(Cl)c1)c1sc2ncccc2c1O [Compound 381, N-(3-chlorophenyl)-3-hydroxy-thieno[2,3-b]pyridine-2-carboxamide]	5 to 25	–	–
Cc1ccc(NC(=O)c2sc3nc4c(cc3c2N)CN(C)CC4)c(F)c1 [Compound 104, 3-Amino-6-methyl-5,6,7,8-tetrahydro-thieno[2,3-b][1,6]naphthyridine-2-carboxylic acid (2-fluoro-4-methyl-phenyl)-amide]	–	5 to 25	–
Nc1c(C(=O)Nc2ccc(Br)cc2)sc2ncccc12 [Compound 423, 3-amino-N-(4-bromophenyl)thieno[2,3-b] pyridine-2-carboxamide]	< 5	–	–
Cc1c(C(=O)Nc2ccc(F)cc2)sc2ncc(C(=O)Nc3ccc(F)cc3)cc12 [Compound 397, N2,N5-bis(4-fluorophenyl)-3-methyl-thieno[2,3-b]pyridine-2,5-dicarboxamide]	< 5	–	–
Cc1cc(F)ccc1NC(=O)c1sc2nc(-c3ccc4c(c3)OCO4)ccc2c1N [Compound 593, 3-amino-6-(1,3-benzodioxol-5-yl)-N-(4-fluoro-2-methyl-phenyl)thieno[2,3-b] pyridine-2-carboxamide]	< 5	–	–
Nc1c(C(=O)Nc2ccc([N+](=O)[O-])cc2)sc2nc3c(c(-c4ccco4)c12)CCC3 [Compound 212, 3-Amino-4-furan-2-yl-6,7-dihydro-5H-cyclopenta[b]thieno[3,2-e]pyridine-2-carboxylic acid (4-nitro-phenyl)-amide]	–	> 25	–
Cc1ccc(NC(=O)c2sc3nc4c(cc3c2N)CN(C)CC4)cc1Cl [Compound 45, 3-Amino-6-methyl-5,6,7,8-tetrahydro-thieno[2,3-b][1,6]naphthyridine-2-carboxylic acid (3-chloro-4-methyl-phenyl)-amide]	–	< 5	–
CC(NC(=O)c1sc2nc3c(cc2c1N)CN(C)CC3)[C@]12C[C@H]3C[C@H](C[C@H](C3)C1)C2 (stereo partly drawn) [Compound 47, 3-Amino-6-methyl-5,6,7,8-tetrahydro-thieno[2,3-b][1,6]naphthyridine-2-carboxylic acid (1-adamantan-1-yl-ethyl)-amide]	–	< 5	–
COc1ccc(-c2c(C#N)c(N)nc3sc(C(=O)Nc4ccc(F)cc4)c(N)c23)cc1OC [Compound 84, 3,6-Diamino-5-cyano-4-(3,4-dimethoxy-phenyl)-thieno[2,3-b]pyridine-2-carboxylic acid (4-fluoro-phenyl)-amide]	–	5 to 25	–
Nc1c(C(=O)Nc2ccc(S(=O)(=O)O)cc2)sc2nc(-c3ccc(Cl)cc3)ccc12 [Compound 346, 4-[[3-amino-6-(4-chlorophenyl)thieno[2,3-b]pyridine-2-carbonyl]amino]benzenesulfonic acid]	< 5	–	–
CCOc1cccc(NC(=O)c2sc3nc4c(cc3c2N)CN(C)CC4)c1 [Compound 108, 3-Amino-6-methyl-5,6,7,8-tetrahydro-thieno[2,3-b][1,6]naphthyridine-2-carboxylic acid (3-ethoxy-phenyl)-amide]	–	5 to 25	–
COc1cccc(-c2ccc3c(N)c(C(=O)Nc4ccc(F)c(Cl)c4)sc3n2)c1 [Compound 526, 3-amino-N-(3-chloro-4-fluoro-phenyl)-6-(3-methoxyphenyl)thieno[2,3-b] pyridine-2-carboxamide]	< 5	–	–
Nc1c(C(=O)Nc2nccs2)sc2nc3c(c(-c4ccco4)c12)CCCC3 [Compound 86, 3-Amino-4-furan-2-yl-5,6,7,8-tetrahydro-thieno[2,3-b]quinoline-2-carboxylic acid thiazol-2-ylamide]	–	5 to 25	–
